Reference: patent publication US20240300999A1, “PEPTIDES FOR REGULATING GLUCOSE” (priority 2021, published 2024)

How the values were obtained:
L6 myotubes [1] = experiment: Glucose uptake (2-deoxy-D-[3H]glucose) screening assay in cultured L6 myotubes; format: cell-based, rat; conditions: for Concentration at which inhibition of glucose uptake was exhibited / Concentration at which stimulation of glucose uptake was exhibited: L6 myotubes; for Bioactivity: Table 4, identified peptides; for Glucose Uptake (fold activity to control), Insulin (−) / Glucose Uptake (fold activity to control), Insulin (+): synthetic peptides 1 ng/mL (each), mean ± SEM
Procedure: Screening assays were performed as follows. L6 rat myoblasts (courtesy of Dr. Amira Klip, Hospital for Sick Children, Toronto, Canada) were grown and maintained in monolayer culture in alpha-MEM containing 2% (v/v) fetal bovine serum in an atmosphere of 5% CO2 at 37° C. L6 myoblasts were plated in 12-well or 24-well plates at 20,000 cells/mL, replacing the media every two days until complete differentiation into myotubes (7 days post-plating).
Once completely differentiated, myotubes were serum deprived (alpha-MEM with 0% FBS) for 3 h and treated or not with SPF (1 ng/ml or 1 μg/mL) for 2 h without (insulin-independent) or with 100 nM insulin (insulin-dependent) during the last 45 min. Cells were rinsed once with glucose-free HEPES-buffered saline solution pH 7.4 (140 mM NaCl, 20 mM HEPES/Na, 5 mM KCl, 2.5 mM MgSO4 and 1 mM CaCl2)), and were subsequently incubated for 8 min with 10 µM 2-deoxy-D-glucose containing 0.3 μCi/mL 2-deoxy-D-[3H]glucose in the same buffer. After incubation in transport medium, cells were rinsed three times with ice-cold saline solution (0.9% NaCl) and stored at −20° C. Cells were disrupted by adding 1 mL of 50 mM NaOH to plates with agitation for 15 min. Cell-incorporated radioactivity was measured using a Perkin Elmer Tricarb liquid scintillation counter. Protein concentrations were determined by the micro bicinchoninic acid method (BCA) using a bovine serum albumin (BSA) standard curve (ThermoScientific, Waltham, Mass, USA), and the results expressed in pM/min/mg protein, calculated using the following equation: […]
where DPM (sample) is the number of disintegrations per minute (DPM) measured for the tested sample, C is the concentration of protein (mg), DPM (2DG) is the number of DPM measure for the solution of radioactive 2-deoxy-D-[3H] glucose for 1 pmol and equal to 72.2025 dpm/pmol, and t is the incubation time with 2-deoxy-D-[3H] glucose, and reported in terms of relative activity to the control sample in the absence of insulin. Statistical analysis was performed in Microsoft Excel using a two-tailed Student's t-test assuming equal variance.

L6 myotubes [2] = experiment: as above; format: cell-based, rat; conditions: for Glucose Uptake (fold activity to control), Insulin (−) / Glucose Uptake (fold activity to control), Insulin (+): synthetic peptides 1 pg/mL (each), mean ± SEM
[3] = 1 ng/mL, insulin state not distinguished (presence or absence)
[4] = 1 pg/mL, insulin state not distinguished

Substance | Effect on glucose uptake (in words) (L6 myotubes [1]; [3]) | Effect on glucose uptake (in words) (L6 myotubes [1]; 1 ng/mL, presence of insulin) | Concentration at which inhibition of glucose uptake was exhibited (L6 myotubes [1]) | Concentration at which stimulation of glucose uptake was exhibited (L6 myotubes [1]) | Bioactivity (L6 myotubes [1]) | Glucose Uptake (fold activity to control), Insulin (−) (L6 myotubes [1]; absence of insulin) | Glucose Uptake (fold activity to control), Insulin (+) (L6 myotubes [1]; presence of insulin) | Effect on glucose uptake (in words) (L6 myotubes [2]; [4]) | Effect on glucose uptake (in words) (L6 myotubes [2]; 1 pg/mL, presence of insulin) | Glucose Uptake (fold activity to control), Insulin (−) (L6 myotubes [2]; absence of insulin) | Glucose Uptake (fold activity to control), Insulin (+) (L6 myotubes [2]; presence of insulin) | Effect on glucose uptake (in words) (L6 myotubes [1]; 1 ng/mL (each peptide), absence of insulin) | Effect on glucose uptake (in words) (L6 myotubes [2]; 1 pg/mL (each peptide), absence of insulin)
Ile-Gly-Tyr (IGY) [chemically synthesized tripeptide, Ile-X-Tyr motif] | stimulating effect | stimulated glucose uptake | 2.8 pM | 2.8 nM | Modulates glucose uptake | 1.05 ± 0.06 fold activity to control | 2.02 ± 0.05 fold activity to control | inhibiting effect | inhibited glucose uptake | 0.98 ± 0.06 fold activity to control | 1.49 ± 0.10 fold activity to control | – | –
Ile-Ala-Tyr (IAY) [chemically synthesized tripeptide, Ile-X-Tyr motif] | stimulating effect | stimulated glucose uptake | 2.7 pM | 2.7 nM | Modulates glucose uptake | 1.13 ± 0.05 fold activity to control | 1.97 ± 0.08 fold activity to control | inhibiting effect | inhibited glucose uptake | 0.86 ± 0.04 fold activity to control | 1.55 ± 0.04 fold activity to control | stimulated glucose uptake | inhibited glucose uptake
Ile-Ile-Ile | No significant effect | – | – | – | – | 1.00 ± 0.04 fold activity to control | 2.02 ± 0.27 fold activity to control | – | – | – | – | – | –
Ile-Ile-Tyr | did not significantly affect | – | – | – | – | 1.06 ± 0.03 fold activity to control | 1.88 ± 0.11 fold activity to control | – | – | 0.97 ± 0.04 fold activity to control | 1.61 ± 0.07 fold activity to control | – | –
Ile-Gly-Ile | No significant effect | – | – | – | – | 1.04 ± 0.04 fold activity to control | 1.75 ± 0.17 fold activity to control | – | – | – | – | – | –
Ile-Ala-Ile | No significant effect | – | – | – | – | 1.04 ± 0.04 fold activity to control | 1.80 ± 0.09 fold activity to control | – | – | – | – | – | –
